Laboratory results: the supplement of paper PMC13207355

Assays:
Conditions in all cases: exposure time: 72 h
[1] = system: E28 (patient-derived glioblastoma stem cells of classical subtype); test: phenotypic distance (Euclidean, principal components) from DMSO controls (arbitrary units); higher = stronger morphological change
[2] = system: E34 (patient-derived glioblastoma stem cells of proneural subtype); test: as above
[3] = system: E31 (patient-derived glioblastoma stem cells of proneural subtype); test: as above
[4] = system: E13 (patient-derived glioblastoma stem cells of classical subtype); test: as above
[5] = system: E57 (patient-derived glioblastoma stem cells of mesenchymal subtype); test: as above
[6] = system: E21 (patient-derived glioblastoma stem cells of mesenchymal subtype); test: as above
[7] = system: FT3469 (normal neural stem cell line); test: as above
[8] = system: E28; test: surviving fraction (nuclei count normalised to DMSO); higher = more cells surviving (less toxic)
[9] = system: E34; test: as above
[10] = system: E31; test: as above
[11] = system: E13; test: as above
[12] = system: E57; test: as above
[13] = system: E21; test: as above
[14] = system: FT3469; test: as above
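For phenotypic distance (Euclidean, principal components) from DMSO controls in this document: cell Painting imaging in 384-well plates, CellProfiler features reduced to at least 20 principal components, Euclidean distance versus same-plate DMSO vehicle wells (0.1% v/v), median over six images per well.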
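For surviving fraction (nuclei count normalised to DMSO) in this document: nuclei counted by high-content imaging of Hoechst-stained cells in laminin-coated 384-well plates, relative to 0.1% DMSO vehicle wells, with staurosporine as cell-death control.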

C/C(=C\c1csc(C)n1)[C@@H]1C[C@@H]2O[C@]2(C)CCC[C@H](C)[C@H](O)[C@@H](C)C(=O)C(C)(C)[C@@H](O)CC(=O)N1 [Ixabepilone]
Conditions | phenotypic distance | surviving fraction
[1], 4.1 nM | 2.8 | –
[1], 12.3 nM | 2.1 | –
[1], 37 nM | 3.6 | –
[1], 111.1 nM | 4.12 | –
[1], 333.3 nM | 4.09 | –
[1], 1000 nM | 3.46 | –
[1], 3000 nM | 4.61 | –
[2], 4.1 nM | 2.35 | –
[2], 12.3 nM | 2.42 | –
[2], 37 nM | 2.65 | –
[2], 111.1 nM | 3.43 | –
[2], 333.3 nM | 3.13 | –
[2], 1000 nM | 3.44 | –
[2], 3000 nM | 4.33 | –
[3], 4.1 nM | 2.61 | –
[3], 12.3 nM | 3.43 | –
[3], 37 nM | 3.83 | –
[3], 111.1 nM | 4.57 | –
[3], 333.3 nM | 4.48 | –
[3], 1000 nM | 4.78 | –
[3], 3000 nM | 4.08 | –
[4], 4.1 nM | 4.32 | –
[4], 12.3 nM | 5.35 | –
[4], 37 nM | 4.56 | –
[4], 111.1 nM | 5.86 | –
[4], 333.3 nM | 5.9 | –
[4], 1000 nM | 6.44 | –
[4], 3000 nM | 6.86 | –
[5], 4.1 nM | 6.02 | –
[5], 12.3 nM | 5.51 | –
[5], 37 nM | 5.64 | –
[5], 111.1 nM | 5.48 | –
[5], 333.3 nM | 7.37 | –
[5], 1000 nM | 6.58 | –
[5], 3000 nM | 6.89 | –
[6], 4.1 nM | 6.26 | –
[6], 12.3 nM | 5.66 | –
[6], 37 nM | 6.8 | –
[6], 111.1 nM | 5.59 | –
[6], 333.3 nM | 6.55 | –
[6], 1000 nM | 6.74 | –
[6], 3000 nM | 6.15 | –
[7], 4.1 nM | 2.99 | –
[7], 12.3 nM | 3.28 | –
[7], 37 nM | 4.81 | –
[7], 111.1 nM | 3.58 | –
[7], 333.3 nM | 3.51 | –
[7], 1000 nM | 4.06 | –
[7], 3000 nM | 4.05 | –
[8], 4.1 nM | – | 0.611
[8], 12.3 nM | – | 0.6
[8], 37 nM | – | 0.431
[8], 111.1 nM | – | 0.464
[8], 333.3 nM | – | 0.345
[8], 1000 nM | – | 0.404
[8], 3000 nM | – | 0.237
[9], 4.1 nM | – | 0.609
[9], 12.3 nM | – | 0.672
[9], 37 nM | – | 0.582
[9], 111.1 nM | – | 0.531
[9], 333.3 nM | – | 0.465
[9], 1000 nM | – | 0.421
[9], 3000 nM | – | 0.331
[10], 4.1 nM | – | 0.269
[10], 12.3 nM | – | 0.261
[10], 37 nM | – | 0.172
[10], 111.1 nM | – | 0.149
[10], 333.3 nM | – | 0.137
[10], 1000 nM | – | 0.208
[10], 3000 nM | – | 0.157
[11], 4.1 nM | – | 0.341
[11], 12.3 nM | – | 0.286
[11], 37 nM | – | 0.271
[11], 111.1 nM | – | 0.193
[11], 333.3 nM | – | 0.21
[11], 1000 nM | – | 0.193
[11], 3000 nM | – | 0.175
[12], 4.1 nM | – | 0.172
[12], 12.3 nM | – | 0.152
[12], 37 nM | – | 0.128
[12], 111.1 nM | – | 0.0952
[12], 333.3 nM | – | 0.0774
[12], 1000 nM | – | 0.0873
[12], 3000 nM | – | 0.0627
[13], 4.1 nM | – | 0.229
[13], 12.3 nM | – | 0.256
[13], 37 nM | – | 0.211
[13], 111.1 nM | – | 0.245
[13], 333.3 nM | – | 0.286
[13], 1000 nM | – | 0.259
[13], 3000 nM | – | 0.243
[14], 4.1 nM | – | 0.574
[14], 12.3 nM | – | 0.624
[14], 37 nM | – | 0.63
[14], 111.1 nM | – | 0.677
[14], 333.3 nM | – | 0.521
[14], 1000 nM | – | 0.716
[14], 3000 nM | – | 0.548
